Consider 11 compounds from patent publication US8501775B2, “Anthelmintics for preventing parasitic infections in humans and animals” (SALTIGO GmbH, priority 2000, dated 2013).

The structures appear in SMILES notation.

Test system in the first data set: not given
Assay: not given
Particulars: literature / regulatory statement; cited from earlier work.
For `O=C(Nc1ccc([N+](=O)[O-])cc1Cl)c1cc(Cl)ccc1O` [Niclosamide], the toxicity / hazard entry was “may possibly cause inheritable genetic damage”. On to `Oc1c(Cl)cc(Cl)c(Cl)c1Cc1c(O)c(Cl)cc(Cl)c1Cl` [hexachlorophene], for which the toxicity / hazard entry was “toxic on contact with the skin and when swallowed”.

A further data set relates to cercariae of Schistosoma mansoni.
Assay: not given
To be noted: literature statement; cited from earlier work.
For the compound `Oc1c(Cl)cc(Cl)c(Cl)c1Cc1c(O)c(Cl)cc(Cl)c1Cl` [hexachlorophene], the “effect on cercariae of Schistosoma mansoni” value is recorded as “lethal effect”. In the case of `CCN(CC)C(=O)c1cccc(C)c1` [DEET, N,N-Diethyl-m-toluamide], the “effect on cercariae of Schistosoma mansoni” value was “acts against cercariae”.

For a further data set the test system is unchanged.
Assay: not given
To be noted: topical, monkeys; literature statement; cited from earlier work.
On to `O=C(Nc1ccc([N+](=O)[O-])cc1Cl)c1cc(Cl)ccc1O` [Niclosamide], for which the “action against the penetration of cercariae” value is recorded as “acts against the penetration of cercariae”.

The next data set concerns Schistosoma mansoni cercariae. Nature of the data set: Activity against Schistosoma mansoni cercariae (survival/mobility observed with a stereomagnifier). Further details: key: no effect during the entire test period of 120 minutes; 1: weak effect (the cercariae have a strongly reduced mobility); 2: good effect (the cercariae are only slightly mobile and bent); 3: full effect (the cercariae are completely immobile). To be noted: 500 μl/l final concentration of the active compounds; test period of 120 minutes. As for the experimental part:
Activity Against Schistosoma mansoni Cercariae
Snails (Biomphalaria glabrata) were infected by incubating each of them with 8 miracidia in 10 ml of water overnight. About 6 to 9 weeks after the infection, cercariae were obtained by irradiating the snails, which had been kept in darkness, with light, followed by collection of the swarming cercariae within 2 hours.
Such an amount of cercariae-containing water (1 or 2 ml, see below) was added to the test batches that each batch contained about 100 to 150 cercariae.
9 ml of aquarium water was then added, and the batch was shaken vigorously. After (delayed) addition of 1 ml of cercariae suspension, survival of the cercariae was in each case observed immediately using a stereomagnifier.
For `CN(CCCO)C(=O)OC1CCCCC1`, the Assessment is recorded as 1. On the same count and under the same terms, next, `C=CCCOC(=O)N(C)CCCO`: 2; `CCCCOC(=O)N1CCCCC1CCO` (stereo not shown): 3. On the same count and under the same terms, next, `CCC(C)OC(=O)N1CCCCC1CCO` (stereo not shown): 2; `C=CCOC(=O)N1CCCCC1CCO` (stereo not shown): 3.

As to `CC(C)(C)OC(=O)N1CCCCC1CCO` (stereo not shown), the Assessment worked out at 3. Regarding `CCC(C)COC(=O)N(C)CCCO` (stereo not shown), the Assessment came out at 1. Same read-out and setting: next, `CCCCOC(=O)N(C)CCCO`: 1.
